# Patent US11839614B2, “Methods for treating or mitigating cardiotoxicity characterized by inhibition of adenosine A2 signaling and/or adenosine A2 receptor expression” (INTRA-CELLULAR THERAPIES, INC., priority 2018, dated 2023)
# System: adult rabbit myocytes
# Test: Contraction and calcium transients in isolated rabbit cardiomyocytes
# Format: cell-based
# Protocol: To test whether PDE1 inhibition directly impacts cardiomyocyte contraction and calcium transients, studies are carried out on normal adult rabbit myocytes. […] As PDE1 requires sufficient cAMP and Ca^2+ to be impactful, a dose response was performed to the adenylate cyclase activator, forskolin (FSK) to determine the lowest dose producing a modest but significant inotropic effect (1 μM).
# Rabbit myocytes were isolated to determine the effect of PDE1 inhibition on cardiomyocyte contraction and whole cell Ca2+ transients, and to compare the results to those with a PDE3 inhibitor, cilostamide (Cil, 1 μM).
# An alternative approach to augmenting cAMP independent of […] is to directly stimulate adenylate cyclase using forskolin (Fsk). A dose response study was carried out to identify a non-saturating Fsk dose that still generated significant inotropic effects (1 μM).
# [1] = Compound 1 added after forskolin 1 μM
# [2] = agent added to non-saturating Iso
# [3] = agent alone: Cil 1 μM, Compound 1 1 μM, Iso non-saturating dose
# [4] = agent alone: Iso 50 nM, Compound 1 up to 1 mM, IBMX 100 μM
smiles,measurement,setting,value
"CN1C(=O)c2c(nn(Cc3ccc(-c4cccc(F)n4)cc3)c2Nc2ccccc2)N2C1=N[C@@H]1CCC[C@@H]12 [Compound 1, (6aR,9aS)-2-(4-(6-fluoropyridin-2-yl)benzyl)-5-methyl-3-(phenyl-amino)-5,6a,7,8,9,9a-hexahydrocyclopenta-[4,5]imidazo[1,2-a]pyrazolo[4,3-e]pyrimidin-4-(2H)-one monophosphate]",peak calcium transient,[1],remains unaltered
same,relaxation/calcium decay rates,[1],significantly increases
same,sarcomere shortening,[1],significantly increases
same,"shortening of calcium relaxation time constant, as share of the maximal achieved with IBMX",FSK+Compound 1 versus FSK+IBMX,67%
same,Ca2+ transient decay rate,agent added to Fsk 1 μM,enhanced the Ca2+ decay rate similarly to Cil
same,peak Ca2+ transient,agent added to Fsk 1 μM,no corresponding increase in peak Ca2+ transient
same,sarcomere shortening,agent added to Fsk 1 μM,sarcomere shortening rose as with Cil
same,peak-Ca2+,[2],no longer significantly different from pre-Iso baseline
same,sarcomere shortening,[2],did not change further
same,decay kinetics / relaxation times,[3],this was not observed
same,peak-Ca2+ transient,[3],this was not observed
same,percent sarcomere shortening,[3],this was not observed
same,contraction/calcium decay time or rates,[4],no effect
same,peak Ca2+ transient,[4],no effect
same,sarcomere shortening,[4],no effect
